Data reported in patent US20230414629A1, “MATERIALS AND METHODS OF TREATING CANCER” (MONOPTEROS THERAPEUTICS, INC., priority 2020, published 2023).
Entries after “also recorded” stand apart in the source; their conditions may differ. One block for each molecule: values may come before it.

Tests used:
[1] = in vivo; cited from earlier work
pKa = format: physicochemical
D4M.3A tumor [2] = assay: D4M.3A syngeneic tumors in C57BL/6J mice, I.P. monotherapy and combination with anti-PD-1; format: in vivo
Experimental: One million cells of D4M.3A tumor were injected subcutaneously into the right hind flank of C57BL/6J mice.
Anti-PD-1 Antibody dosing was 10 μL/g animal weight for 3 doses on first, third and fifth treatment day.
Measurement of tumor volume (L×W2)/2 was done by caliper. Longest tumor diameter becomes length. Width is perpendicular to length. Volume=(width2×length)/2.

[3] = system: circulating regulatory T cells (Tregs); assay: Circulating Tregs in rats under continuous oral dosing (flow cytometry); format: in vivo; settings: 15 and 30 mg/kg oral, days 0 through 14
Text: Animals: Harlan Sprague Dawley rats (Hsd:SD) rats were procured through Envigo (Indianapolis, IN). Rats were individually housed in an Optirat carousel with a filtered air supply (Animal Care Systems, Inc. [Centennial, CO]). Rats were fed Teklad rodent diet (Cat. #2020X) and bedded with Teklad ⅛th inch corncob bedding.
Blood sampling: After a 72-hour acclimation period, Rats were randomized into (3) groups of 5 rats each (Day −1). Blood samples were taken on days: −1, 3, 5, 7, 10, and 14. Blood sampling was conducted by inserting a 22 g PinPort injector (Cat. #PNP3M) on the pinport and drawing 200 μL of catheter Loc solution using a 1 mL syringe. The syringe was discarded and a new 1 mL syringe was used to draw approximately 300 μL of whole blood. Whole blood was expelled into 1.7 mL K2EDTA coated tubes and inverted 3× and put at 4 C until processing for flow cytometry. A syringe with Catheter Loc solution (Heparin/Glycerol Loc solution, Cat. #HGS-5 [Braintree Scientific]) was placed on a new PinPort injector and 200 μL of catheter loc solution was added. […]
Flow cytometry: Following red blood cell lysis (BD Pharm Lyse, Cat. #555899, Lot #9311388), rat blood samples were stained with near-IR fixable viability dye (1:3000 dilution, Invitrogen, Cat. #L34960 H, Lot #2159963) for 30 minutes at room temperature. […] Data was analyzed with FlowJo (BD, v10.6.2).

[4] = Serum IgE and IgG in dogs dosed daily for 28 days; format: in vivo; settings: 10-30 mg/kg daily for 28 days
Experimental: Whole venous blood samples of approximately 1 mL were collected from a peripheral vein of all animals on day 0 and on day 28 of the treatment period for determination of IgG and IgE concentrations. Test samples were diluted and incubated in the microtiter wells for 45 minutes alongside dog IgG or IgE standards. The microtiter wells were subsequently washed and HRP conjugate is added and incubated for 45 minutes. IgG or IgE molecules are thus sandwiched between the immobilization and detection antibodies. The wells were then washed to remove unbound HRP-labeled antibodies and TMB reagent was added and incubated for 20 minutes at room temperature. […] Color development is stopped by the addition of Stop Solution, changing the color to yellow, and optical density is measured spectrophotometrically at 450 nm. The concentration of IgG or IgE is proportional to the optical density of the test sample and is derived from a standard curve.

[5] = Plasma pharmacokinetics in C57/BL6 mice; format: in vivo
Experimental: (§1) A high volume of distribution (Vss 22.6 l/kg) was observed. […] The tumor concentrations in this experiment were above 3 μM for a 24-hour period, which is a required dose for an anti-tumor effect in patient-derived tumor spheroids as shown in FIG. 9. […] MPT-0118 is quickly distributed from the plasma to the tissue compartment, which reduces the risk for depletion of circulating Tregs. The high volume of distribution and accumulation of MPT-0118 in tumor tissue broadens the therapeutic window for cancer therapy.

[6] = Tumor pharmacokinetics in D4M.3A tumor-bearing C57/BL6 mice; format: in vivo; settings: 64 mg/kg PO once per day, after 20 days of dosing, for a 24-hour period
Experimental: as §1

D4M.3A tumor [7] = assay: Tumor growth in D4M.3A tumor-bearing C57/BL6 mice, oral dosing; format: in vivo; settings: 64 mg/kg orally once per day for 20 days
Text: A high volume of distribution (Vss 22.6 l/kg) was observed. […] MPT-0118 is quickly distributed from the plasma to the tissue compartment, which reduces the risk for depletion of circulating Tregs. The high volume of distribution and accumulation of MPT-0118 in tumor tissue broadens the therapeutic window for cancer therapy.

[8] = system: patient-derived tumor spheroids; assay: Anti-tumor effect in patient-derived tumor spheroids; format: cell-based

SMILES: CO[C@@H](C)c1c(NC(=O)Nc2ccnc(C(F)(F)F)c2)cnc2cc(Cl)nn12 [MLT-943]
serum IgE [1]: increased

pKa (pKa): 6.5
SMILES: CO[C@@H](C)c1c(NC(=O)Nc2cnc(-n3nccn3)c(C(F)(F)F)c2)cnc(N)c1Br [Compound-139]

pKa (pKa): 9.2
Vd ([5]; C57/BL6, mouse, single dose 16 mg/kg IV, plasma over 8 hours, read-out: volume of distribution (Vss)): 22.6 L/kg
bioavailability ([5]; mouse, in vivo, po): 25 to 35%
tumor concentrations [6]: above 3 μM
SMILES: CN1CCC[C@H](CN2c3ccccc3Sc3ccccc32)C1 [(S)-mepazine]
tumor volume (D4M.3A tumor [2]; combination therapy: 32 mg/kg I.P. once per day with anti-PD-1 antibody): significant reduction in tumor volume; also recorded: reduced tumor volume
tumor volume (D4M.3A tumor [2]; monotherapy, 32 mg/kg I.P. once per day, from day 9): reduced tumor volume
average percent of circulating regulatory T cells (Tregs) [3]: no effect; also recorded: did not deplete
serum levels of IgE [4]: not negatively impact; also recorded: did not increase; also recorded: did not decrease
serum levels of IgG [4]: not negatively impact; also recorded: did not increase; also recorded: did not decrease
tumor growth inhibition (D4M.3A tumor [7]): significant tumor growth inhibition
required dose for an anti-tumor effect in patient-derived tumor spheroids [8]: 3 µM

pKa (pKa): < 5
SMILES: CO[C@@H](C)c1c(NC(=O)Nc2cnc(-n3nccn3)c(Cl)c2)cnc2cc(Cl)nn12 [Example-10]
